The values that follow come from publication PMC3343456 (Angewandte Chemie (International ed. in English), 2011).

The test has as its target GilOI (Streptomyces griseoflavus, UniProt Q7X2G6). Briefly: cofactor content of the purified enzyme. Format: binding.

As for `Cc1cc2nc3c(=O)[nH]c(=O)nc-3n(C[C@H](O)[C@H](O)[C@H](O)COP(=O)(O)OP(=O)(O)OC[C@H]3O[C@@H](n4cnc5c(N)ncnc54)[C@H](O)[C@@H]3O)c2cc1C` [flavin adenine dinucleotide], the “cofactor content of the purified enzyme (Figure S3)” value was “GilOI and GilOIV are oxygenases that contain flavin adenine dinucleotide (FAD, Figure S3”.
